Test results published in US9376449B2, “Indole carboxamide derivative” (Astellas Pharma Inc., priority 2012, dated 2016).

How the values were obtained:
3T3 = assay: In vitro 3T3 NRU phototoxicity test; format: cell-based
Procedure: Test Example 6 Drug Pharmacokinetic Test, Safety Pharmacology Test, and Toxicity Test
Using some Example compounds of the present invention, a drug Pharmacokinetic test, a safety pharmacology test, and a toxicity test were carried out.
(iii) For the toxicity test, for example, an in vitro phototoxicity test was carried out. The evaluation of the in vitro phototoxicity test was carried out in accordance with Guidance for industry photosafety testing, Center for Drug Evaluation and Research Food and Drug Administration, 2003, which is a guideline of FDA (U.S. Food and Drug Administration), and Note for guidance on photosafety testing (CPMP/SWP/398/01, 2002) which is a guideline of EMA (European Medicines Agency), and the method described in OECD guideline for testing of chemicals 432: In vitro 3T3 NRU phototoxicity test, 2004, which is a test method described in the report of OECD.

isolated urethra = assay: Test confirming that urethra contractile action by ramelteon is through MT1 and/or MT2 receptor (Luzindole); set-up: species or system rat; conditions: ramelteon 1 μM; solvent added instead of Luzindole; first contraction by ramelteon as 100%
Procedure: (2) Test for Confirming that Urethra Contractile Action is Action Through MT1 and/or MT2 Receptor
The urethra was isolated from an SD female rat having a body weight of 100 to 500 g. The isolated urethra was incised longitudinally to give a rectangular strip specimen having a width of about 3 mm, which was suspended in the muscle parallel to the circular to 10 mL of a tissue bath filled with a Krebs-Henseleit solution (pH 7.4). […] The resting tension was set to 0.5 g to record the isometric contraction. After the resting tension was stabilized, contraction was elicited by the addition of 10 μM phenylephrine. After washing and stabilizing, the test compound (ramelteon) at 1 μM was added to measure a contractile response. After washing and stabilizing, a solvent or Luzindole (purchased from Wako Pure Chemical Industries, Ltd.) (0.1 μM, 1 μM, or 10 μM) was added to the same specimen, and after 20 minutes, ramelteon at 1 μM was added again thereto to measure a contractile reaction. When the first contraction by ramelteon at 1 μM was taken as 100%, the second contractile rate by ramelteon was measured.

| melting point | SMILES | phototoxicity action (3T3) | Second contractile rate by ramelteon (%) (isolated urethra) |
| --- | --- | --- | --- |
| – | CNC(=O)c1[nH]c2cc(F)c(OC)cc2c1CCNC(C)=O [Ex 17] | no phototoxicity action | – |
| – | CCC(=O)NCC[C@@H]1CCc2ccc3c(c21)CCO3 [Ramelteon, reference compound] | – | 98 ± 10% |
| 212 to 215 °C | CNC(=O)c1[nH]c2ccc(OC)cc2c1CCNC(=O)C(F)F [Ex 2, 3-{2-[(difluoroacetyl)amino]ethyl}-5-methoxy-N-methyl-1H-indole-2-carboxamide] | no phototoxicity action | – |
